Each block holds one compound with its values, some of them ahead of it.
Assay: xn = mol fraction of the nth substance listed
Conditions: 298.15 K, 101 kPa

Compound: CC(C)=O + CC(=O)[O-].CCCC[n+]1ccn(C)c1
speed of sound (x1 = 1): 1163 m/s

speed of sound (x1 = 1): 1495 m/s
Compound: O + CC(=O)[O-].CC[n+]1ccn(C)c1

Compound: CC(=O)[O-].CCCC[n+]1ccn(C)c1 + CC(C)=O
speed of sound (x2 = 0): 1650 m/s
speed of sound (x2 = 0.2024): 1600 m/s
speed of sound (x2 = 0.3155): 1566 m/s
speed of sound (x2 = 0.49): 1497 m/s
speed of sound (x2 = 0.5915): 1445 m/s
speed of sound (x2 = 0.689): 1384 m/s
speed of sound (x2 = 0.8036): 1301 m/s
speed of sound (x2 = 0.8357): 1276 m/s

Compound: CC[n+]1ccn(C)c1.N#C[S-] + CC(C)=O
speed of sound (x2 = 0): 1851 m/s
speed of sound (x2 = 0.1125): 1824 m/s
speed of sound (x2 = 0.1889): 1798 m/s
speed of sound (x2 = 0.3058): 1758 m/s
speed of sound (x2 = 0.3917): 1720 m/s
speed of sound (x2 = 0.5127): 1652 m/s
speed of sound (x2 = 0.6): 1590 m/s
speed of sound (x2 = 0.6892): 1513 m/s
speed of sound (x2 = 0.7842): 1417 m/s
speed of sound (x2 = 0.9008): 1286 m/s

Compound: CC(C)=O + CC[n+]1ccn(C)c1.N#C[S-]
speed of sound (x1 = 1): 1166 m/s

Compound: CC(=O)[O-].CC[n+]1ccn(C)c1 + O
speed of sound (x2 = 0): 1735 m/s
speed of sound (x2 = 0.1306): 1754 m/s
speed of sound (x2 = 0.2326): 1763 m/s
speed of sound (x2 = 0.2865): 1781 m/s
speed of sound (x2 = 0.3671): 1795 m/s
speed of sound (x2 = 0.4047): 1803 m/s
speed of sound (x2 = 0.4896): 1811 m/s
speed of sound (x2 = 0.5258): 1838 m/s
speed of sound (x2 = 0.5507): 1841 m/s
speed of sound (x2 = 0.7151): 1910 m/s
speed of sound (x2 = 0.7317): 1922 m/s
speed of sound (x2 = 0.8099): 1952 m/s
speed of sound (x2 = 0.9053): 1915 m/s
